Measurements taken from patent US20090029955A1, “Pyridothienopyrimidine Derivatives” (priority 2004, published 2009).

tested on: PDE4; test: PDE4 Assay Procedure ([3H]-cAMP SPA); format: biochemical; conditions: 15 nM [3H]-cAMP, 1 hour at room temperature, SPA beads; compounds tested from 10 μM to 10 pM

Row | IC50 [nM] | SMILES
1 | 3 | CC1(C)CCc2c(N3CCSCC3)nc3sc4c(NCc5ccccn5)ncnc4c3c2C1 [Example 16, 2,2-Dimethyl-N-(pyridin-2-ylmethyl)-5-thiomorpholin-4-yl-1,2,3,4-tetrahydropyrimido[4′,5′:4,5]thieno[2,3-c]isoquinolin-8-amine]
2 | 8.1 | CC1(C)CCc2c(N3CCCC3)nc3sc4c(NCCN5CCOCC5)ncnc4c3c2C1 [Example 23, 2,2-Dimethyl-N-(2-morpholin-4-ylethyl)-5-pyrrolidin-1-yl-1,2,3,4-tetrahydropyrimido[4′,5′:4,5]thieno[2,3-c]isoquinolin-8-amine]
3 | 14 | CC1(C)CCc2c(N3CCCC3)nc3sc4c(NCc5ccncc5)ncnc4c3c2C1 [Example 24, 2,2-Dimethyl-N-(pyridin-4-ylmethyl)-5-pyrrolidin-1-yl-1,2,3,4-tetrahydropyrimido[4′,5′:4,5]thieno[2,3-c]isoquinolin-8-amine]
4 | 1.5 | CC1(C)CCc2c(N3CCCC3)nc3sc4c(NCc5cccnc5)ncnc4c3c2C1 [Example 25]
5 | 7.9 | CCOC(=O)N1CCN(CCNc2ncnc3c2sc2nc(N(C)C)c4c(c23)CC(C)(C)CC4)CC1 [Example 43, Ethyl 4-(2-{[5-(dimethylamino)-2,2-dimethyl-1,2,3,4-tetrahydropyrimido[4′,5′:4,5]thieno[2,3-c]isoquinolin-8-yl]amino}ethyl)piperazine-1-carboxylate]
6 | 10 | CCN(C)c1nc2sc3c(NCC(=O)NCC4CCCO4)ncnc3c2c2c1CCC(C)(C)C2 (stereo not drawn) [Example 54, N^2-{5-[Ethyl(methyl)amino]-2,2-dimethyl-1,2,3,4-tetrahydropyrimido[4′,5′:4,5]thieno[2,3-c]isoquinolin-8-yl}-N^1-(tetrahydrofuran-2-ylmethyl)glycinamide]
7 | 4.8 | CC(C)Cc1nc2sc3c(NCCCN4CCCC4=O)ncnc3c2c2c1CCC(C)(C)C2 [Example 60, 1-{3-[(5-Isobutyl-2,2-dimethyl-1,2,3,4-tetrahydropyrimido[4′,5′:4,5]thieno[2,3-c]isoquinolin-8-yl)amino]propyl}pyrrolidin-2-one]
8 | 3.8 | CC1(C)CCc2c(-c3ccco3)nc3sc4c(NCCN5CCOCC5)ncnc4c3c2C1 [Example 62, 5-(2-Furyl)-2,2-dimethyl-N-(2-morpholin-4-ylethyl)-1,2,3,4-tetrahydropyrimido[4′,5′:4,5]thieno[2,3-c]isoquinolin-8-amine]
9 | 4.6 | CN(C)c1nc2sc3c(NCc4cccnc4)ncnc3c2c2c1CC(C)(C)C2 [Example 79, N^4,N^4,2,2-Tetramethyl-N-(pyridin-3-ylmethyl)-2,3-dihydro-1H-cyclopenta[4′,5′]pyrido[3′,2′:4,5]thieno[3,2-d]pyrimidin-4,7-diamine]
